Measurements reported in article PMC11316111, “Mechanism of allosteric inhibition of human p97/VCP ATPase and its disease mutant by triazole inhibitors” (Communications Chemistry, 2024).
Several values for one entry are separate records, joined by “and”; a condition that tells them apart may be missing. Equal entries are not always repeated. Where two headings read alike, the source gives them in different places.

Legend:
[1] = tested on: Ub^G76V-GFP/ODD-Luc HeLa cells; assay: Cellular Ub^G76V-GFP accumulation assay; assay type: cell-based; conditions: Table S3, four replicates, read-out: UbG76V-GFP EC50
Protocol: ImageXpress high-content confocal microscope (Molecular Devices, LLC., San Jose, CA) was used to image cells at GFP channel. The percentage of Ub^G76V-GFP accumulation (%Acc) is calculated using the following formula: […]
The IC50 values were calculated by fitting the %Acc from four replicates with various concentrations of compounds using GraphPad Prism 7.0 (GraphPad, Boston, MA).

HCT116 p97WT = assay: HCT116 proliferation assay (CellTiter Glo); assay type: cell-based; parameters: key to cellular viability of HCT116: % of DMSO control viability; conditions: for cellular viability of HCT116 / viability at 0.06 µM / viability at 0.17 µM / viability at 0.52 µM / viability at 1.6 µM / viability at 4.7 µM / viability at 14 µM / viability at 42.1 µM: single replicates; for viability at 0.06 µM: HCT-116, 0.06 µM; for viability at 0.06 µM / viability at 0.17 µM / viability at 0.52 µM / viability at 1.6 µM / viability at 4.7 µM / viability at 14 µM / viability at 42.1 µM: read-out: cellular viability of HCT116; for viability at 0.17 µM: HCT-116, 0.17 µM; for viability at 0.52 µM: HCT-116, 0.52 µM; for viability at 1.6 µM: HCT-116, 1.60 µM; for viability at 4.7 µM: HCT-116, 4.70 µM; for viability at 14 µM: HCT-116, 14.0 µM; for viability at 42.1 µM: HCT-116, 42.1 µM
Protocol: (§1) Anti-proliferative activity was measured using CellTiter Glo® Luminescent Cell Viability Assay (Promega G7572) according to the manufacturer’s procedure as described. RMPI1640 containing 5% FBS and 1% penicillin-streptomycin was used as a cell viability medium. A standard curve of HCT116 was generated for finding the linear relationship between the relative luminescence unit and the number of viable cells. […] 24 h after seeding, 8 μL of media containing 5% DMSO was added to each well, and the plate was incubated for an additional 48 h. To test the anti-proliferative activity of p97 inhibitors, we seeded HCT116 at 750 cells per well according to the linear range. […] After 48 h of treatment, cell viability was measured by adding CellTiter Glo reagent and reading the signal with a BioTek Synergy Neo plate reader (Agilent, Santa Clara, CA). The IC50 values were calculated from four replicates using the percentage of growth of treated cells versus the DMSO control. The results were analyzed using GraphPad Prism 7.0 (GraphPad, Boston, MA).

HCT116 p97P510S = assay: Cellular viability, resistant HCT116 p97P510S; assay type: cell-based
Protocol: (§2) Drug-resistant HCT116 cell lines were derived using the method previously described and with certain modifications[70],[99]. […] Drug-resistant clones were transferred into a new plate for passaging, and subsequently used to study drug resistance and identify the p97 mutations.
as §1

HCT116 p97K512N = assay: Cellular viability, resistant HCT116 p97K512N; assay type: cell-based
Protocol: as §2, §1

HCT116 p97F618S = assay: Cellular viability, resistant HCT116 p97F618S; assay type: cell-based
Protocol: as §2, §1

wild-type p97 (p97^WT) = molecular target: T1, wild-type p97 (p97^WT) (Homo sapiens, UniProt P55072); assay: p97 ATPase activity (Biomol Green), wild-type p97; assay type: biochemical; conditions: for IC50: 200 μM ATP, six replicates; for Ratio of IC50 values for mutants to IC50 values for wild-type p97, WT: WT/WT reference
T1 construct: made in house
T1 sequence (P55072 whole entry): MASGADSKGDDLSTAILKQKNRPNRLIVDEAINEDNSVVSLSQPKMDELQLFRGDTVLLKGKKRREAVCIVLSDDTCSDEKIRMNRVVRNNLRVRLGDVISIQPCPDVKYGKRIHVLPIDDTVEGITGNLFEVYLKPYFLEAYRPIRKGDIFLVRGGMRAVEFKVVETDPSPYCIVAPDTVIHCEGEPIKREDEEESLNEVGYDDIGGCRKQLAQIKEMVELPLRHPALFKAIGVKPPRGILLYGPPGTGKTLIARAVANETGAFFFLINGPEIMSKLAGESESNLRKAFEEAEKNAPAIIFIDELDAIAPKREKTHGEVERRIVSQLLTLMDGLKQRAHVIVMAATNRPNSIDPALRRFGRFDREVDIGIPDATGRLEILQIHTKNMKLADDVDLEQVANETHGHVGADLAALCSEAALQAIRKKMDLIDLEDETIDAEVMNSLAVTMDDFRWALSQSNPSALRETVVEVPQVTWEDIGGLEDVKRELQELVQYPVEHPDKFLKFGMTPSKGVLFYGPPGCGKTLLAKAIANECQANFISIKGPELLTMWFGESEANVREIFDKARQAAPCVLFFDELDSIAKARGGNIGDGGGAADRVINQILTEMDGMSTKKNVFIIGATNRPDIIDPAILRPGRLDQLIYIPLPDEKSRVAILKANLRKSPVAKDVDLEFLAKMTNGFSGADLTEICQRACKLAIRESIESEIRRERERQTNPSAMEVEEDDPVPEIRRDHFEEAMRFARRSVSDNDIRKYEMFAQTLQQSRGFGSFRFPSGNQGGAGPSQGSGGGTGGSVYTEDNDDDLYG
Protocol: (§3) Results were calculated from 6 replicates using GraphPad Prism 7.0 (GraphPad Software, Boston, MA).

p97^R155H = molecular target: T2, p97^R155H (Homo sapiens, UniProt P55072, R155H); assay: p97 ATPase activity (Biomol Green), R155H mutant; assay type: biochemical; conditions: for IC50: 200 μM ATP, six replicates; for Ratio of IC50 values for mutants to IC50 values for wild-type p97, R155H: R155H/WT
T2 construct: enabling us to acquire high-resolution biomolecular structures of full-length p97; made in house
T2 sequence (P55072 whole entry R155H): as the sequence (P55072 whole entry) above, with R155H counted along it
Protocol: as §3

p97^P510S = molecular target: T3, p97^P510S (Homo sapiens, UniProt P55072, P510S); assay: p97 ATPase activity (Biomol Green), P510S mutant; assay type: biochemical; conditions: for IC50: 200 μM ATP, six replicates; for Ratio of IC50 values for mutants to IC50 values for wild-type p97, P510S: P510S/WT
T3 construct: made in house
T3 sequence (P55072 whole entry P510S): as the sequence (P55072 whole entry) above, with P510S counted along it
Protocol: as §3

p97^K512N = molecular target: T4, p97^K512N (Homo sapiens, UniProt P55072, K512N); assay: p97 ATPase activity (Biomol Green), K512N mutant; assay type: biochemical; conditions: for IC50: 200 μM ATP, six replicates; for Ratio of IC50 values for mutants to IC50 values for wild-type p97, K512N: K512N/WT
T4 construct: made in house
T4 sequence (P55072 whole entry K512N): as the sequence (P55072 whole entry) above, with K512N counted along it
Protocol: as §3

p97^N616F = molecular target: T5, p97^N616F (Homo sapiens, UniProt P55072, N616F); assay: p97 ATPase activity (Biomol Green), N616F mutant; assay type: biochemical; conditions: for IC50: 200 μM ATP, six replicates; for Ratio of IC50 values for mutants to IC50 values for wild-type p97, N616F: N616F/WT
T5 construct: made in house
T5 sequence (P55072 whole entry N616F): as the sequence (P55072 whole entry) above, with N616F counted along it
Protocol: as §3

p97^F618S = molecular target: T6, p97^F618S (Homo sapiens, UniProt P55072, F618S); assay: p97 ATPase activity (Biomol Green), F618S mutant; assay type: biochemical; conditions: for IC50: 200 μM ATP, six replicates; for Ratio of IC50 values for mutants to IC50 values for wild-type p97, F618S: F618S/WT
T6 construct: made in house
T6 sequence (P55072 whole entry F618S): as the sequence (P55072 whole entry) above, with F618S counted along it
Protocol: as §3

[2] = Homo sapiens, HCT-116, Table S6, 48-hour treatment, read-out: Cell viability of HCT116 IC50
[3] = Homo sapiens, HCT-116, Table S3, four replicates
[4] = Homo sapiens, HCT-116, Table S3, cellular viability, four replicates, read-out: IC50 HCT116 p97WT

Compound	EC50 ([1]; Homo sapiens, HeLa) [µM]	IC50 (HCT116 p97WT; [2]) [µM]	IC50 (HCT116 p97P510S; [3]) [µM]	% ATPase activity (wild-type p97 (p97^WT); inhibitor 0.000905 µM) [%]	% ATPase activity (wild-type p97 (p97^WT); inhibitor 0.002716 µM) [%]	% ATPase activity (wild-type p97 (p97^WT); inhibitor 0.008148 µM) [%]	% ATPase activity (wild-type p97 (p97^WT); inhibitor 0.024444 µM) [%]	% ATPase activity (wild-type p97 (p97^WT); inhibitor 0.073333 µM) [%]	% ATPase activity (wild-type p97 (p97^WT); inhibitor 0.220000 µM) [%]	IC50 (HCT116 p97WT; [4]) [µM]	IC50 (wild-type p97 (p97^WT)) [µM]	Ratio of IC50 values for mutants to IC50 values for wild-type p97, WT (wild-type p97 (p97^WT))	IC50 (p97^R155H) [µM]	Ratio of IC50 values for mutants to IC50 values for wild-type p97, R155H (p97^R155H)	increase of IC50 versus p97^WT, P510S (p97^P510S)	IC50 (p97^P510S) [µM]	Ratio of IC50 values for mutants to IC50 values for wild-type p97, P510S (p97^P510S)	increase of IC50 versus p97^WT, K512N (p97^K512N) [fold]	IC50 (p97^K512N) [µM]	Ratio of IC50 values for mutants to IC50 values for wild-type p97, K512N (p97^K512N)	other results
Cc1cc2c(C(N)=O)cccc2n1-c1nc2c(c(NCc3ccccc3)n1)COCC2 [CB-5083, 1-[4-(benzylamino)-5H,7H,8H-pyrano[3d,[4]]pyrimidin-2-yl]-2-methyl-1H-indole-4-carboxamide, reference compound]	0.43	0.344	1																		IC50 (HCT116 p97WT; Homo sapiens, HCT-116, read-out: IC50 HCT116 p97WT): 0.4 µM; IC50 (HCT116 p97K512N; [3]): 0.5 µM; IC50 (HCT116 p97F618S; [3]): 0.6 µM
Cc1cc(OCc2nnc(SC3CCCC3)n2-c2cccnc2)ccc1-c1ccc(S(C)(=O)=O)cc1 [NMS-873, reference compound]	2		9.2	106	98	88	55	28	14	2											
CN1CCC(NC(=O)OCC#Cc2c(F)cc(OCc3nnc(S[C@H]4C=CCCC4)n3-c3cccnc3)cc2F)CC1 [NSC799462]	0.23	0.296	6.9	98	90	67	27	15	16	0.39	0.015	1	0.011	0.7	61 fold	0.91	61	3	0.045	3	increase of IC50 versus p97^WT, N616F (p97^N616F): 121 fold; IC50 (p97^N616F): 1.81 µM; Ratio of IC50 values for mutants to IC50 values for wild-type p97, N616F (p97^N616F): 121; increase of IC50 versus p97^WT, F618S (p97^F618S): 31 fold; IC50 (p97^F618S): 0.46 µM; Ratio of IC50 values for mutants to IC50 values for wild-type p97, F618S (p97^F618S): 31; cellular viability of HCT116 (HCT116 p97WT; 0.06 µM): 105 (2×) and 108; cellular viability of HCT116 (HCT116 p97WT; 0.17 µM): 93 (2×) and 96; cellular viability of HCT116 (HCT116 p97WT; 1.60 µM, 1.6 µM): 4; cellular viability of HCT116 (HCT116 p97WT; 42.1 µM): 1; viability at 0.06 µM (HCT116 p97WT; Homo sapiens): 100%; viability at 0.17 µM (HCT116 p97WT; Homo sapiens): 94%; viability at 0.52 µM (HCT116 p97WT; Homo sapiens): 6%; viability at 1.6 µM (HCT116 p97WT; Homo sapiens): 5%; viability at 4.7 µM (HCT116 p97WT; Homo sapiens): 5%; viability at 14 µM (HCT116 p97WT; Homo sapiens): 5%; viability at 42.1 µM (HCT116 p97WT; Homo sapiens): 2%
CCC(=O)NCC#Cc1cc(F)c(OCc2nnc(S[C@H]3C=CCCC3)n2-c2cccnc2)cc1F [NSC804515]	0.87			99	92	72	32	16	12	0.75	0.015	1	0.014	0.9	more than 30 fold	2.32	155	12	0.18	12	increase of IC50 versus p97^WT, N616F (p97^N616F): more than 30 fold; IC50 (p97^N616F): > 6.6 µM; Ratio of IC50 values for mutants to IC50 values for wild-type p97, N616F (p97^N616F): > 440; increase of IC50 versus p97^WT, F618S (p97^F618S): more than 30 fold; IC50 (p97^F618S): 1.75 µM
C[C@@H]1CN(C(=O)Cn2ncc(-c3cc(F)c(OCc4nnc(S[C@H]5C=CCCC5)n4-c4cccnc4)cc3F)n2)C[C@H](C)O1 [NSC819701]	0.66			102	90	71	31	23	14	0.83	0.016	1	0.015	0.9	more than 30 fold	2.8	175	7.5	0.12	7.5	increase of IC50 versus p97^WT, N616F (p97^N616F): more than 30 fold; IC50 (p97^N616F): 5.34 µM; Ratio of IC50 values for mutants to IC50 values for wild-type p97, N616F (p97^N616F): 334; increase of IC50 versus p97^WT, F618S (p97^F618S): more than 30 fold; IC50 (p97^F618S): 1.51 µM; Ratio of IC50 values for mutants to IC50 values for wild-type p97, F618S (p97^F618S): 94
CC1CCCC(C)N1CCOc1cc([N+](=O)[O-])ccc1C#N (stereo not shown) [UPCDC30733]																					EC50 [1]: 0.53 µM; IC50 (HCT116 p97WT; Table S3, cellular viability, four replicates, read-out: IC50 HCT116 p97WT): 0.68 µM; IC50 (HCT116 p97P510S; Table S3, four replicates): 9.6 µM; IC50 (HCT116 p97K512N; Table S3, four replicates): 25 µM; IC50 (HCT116 p97F618S; Table S3, four replicates): 21 µM
CN1CCC(NC(=O)OCC#Cc2cc(F)c(OCc3nnc(S[C@H]4C=CCCC4)n3-c3cccnc3)cc2F)CC1 [UPCDC30766]	0.27	0.296	10.3							0.29											cellular viability of HCT116 (HCT116 p97WT; 0.06 µM): 99 and 98 and 101; cellular viability of HCT116 (HCT116 p97WT; 0.17 µM): 95 and 90; cellular viability of HCT116 (HCT116 p97WT; 0.52 µM): 6; cellular viability of HCT116 (HCT116 p97WT; 14.0 µM): 3; cellular viability of HCT116 (HCT116 p97WT; 42.1 µM): 1; viability at 0.06 µM (HCT116 p97WT; Homo sapiens): 94%; viability at 0.17 µM (HCT116 p97WT; Homo sapiens): 97%; viability at 0.52 µM (HCT116 p97WT; Homo sapiens): 5%; viability at 1.6 µM (HCT116 p97WT; Homo sapiens): 4%; viability at 4.7 µM (HCT116 p97WT; Homo sapiens): 5%; viability at 14 µM (HCT116 p97WT; Homo sapiens): 4%; viability at 42.1 µM (HCT116 p97WT; Homo sapiens): 2%; IC50 (HCT116 p97K512N; [3]): 7.3 µM
